Data on six compounds can be found in ChEMBL document CHEMBL5303573, “Mapping human microbiome drug metabolism by gut bacteria and their genes” (Nature, 2019).

For data set [1] the following is noted: bacteroides thetaiotaomicron, 12 h, 2 µM.
Description: The drug is tested on Bacteroides thetaiotaomicron strain: 7330 for biotransformation. The drug concentrations were measured before and after a 12-h incubation by liquid-chromatography-coupled mass spectrometry (LC–MS)
The conditions of data set [2]: victivallis vadensis, 12 h, 2 µM.
Description: The drug is tested on Victivallis vadensis strain: ATCC BAA-548 for biotransformation. The drug concentrations were measured before and after a 12-h incubation by liquid-chromatography-coupled mass spectrometry (LC–MS)
Data set [3] can be described thus: The drug is tested on Eubacterium hallii strain: DSM3353 for biotransformation. The drug concentrations were measured before and after a 12-h incubation by liquid-chromatography-coupled mass spectrometry (LC–MS). Particulars: anaerobutyricum hallii, 2 µM.
Data set [4] in a line: The drug is tested on Collinsella aerofaciens strain: ATCC25986 for biotransformation. The drug concentrations were measured before and after a 12-h incubation by liquid-chromatography-coupled mass spectrometry (LC–MS). Particulars: 2 µM.
A short description of data set [5]: The drug is tested on Bifidobacterium breve strain: DSM20213 for biotransformation. The drug concentrations were measured before and after a 12-h incubation by liquid-chromatography-coupled mass spectrometry (LC–MS). Particulars: 2 µM.
Data set [6] in a line: The drug is tested on Blautia hansenii strain: DSM20583 for biotransformation. The drug concentrations were measured before and after a 12-h incubation by liquid-chromatography-coupled mass spectrometry (LC–MS). The conditions noted are these: 2 µM.
Data set [7] can be described thus: The drug is tested on Clostridium sporogenes strain: ATCC15579 for biotransformation. The drug concentrations were measured before and after a 12-h incubation by liquid-chromatography-coupled mass spectrometry (LC–MS). Particulars: 2 µM.
The conditions of data set [8]: bacteroides thetaiotaomicron, 12 h, 2 µM. This is another data set of the same source.
Description: The drug is tested on Bacteroides thetaiotaomicron strain: VPI-5482 for biotransformation. The drug concentrations were measured before and after a 12-h incubation by liquid-chromatography-coupled mass spectrometry (LC–MS)
The conditions of data set [9]: bacteroides fragilis, 12 h, 2 µM.
Description: The drug is tested on Bacteroides fragilis strain: DS-208 for biotransformation. The drug concentrations were measured before and after a 12-h incubation by liquid-chromatography-coupled mass spectrometry (LC–MS)
The conditions of data set [10]: bacteroides fragilis, 12 h, 2 µM. The source holds these as a separate data set.
Description: The drug is tested on Bacteroides fragilis strain: 3397 (T10) for biotransformation. The drug concentrations were measured before and after a 12-h incubation by liquid-chromatography-coupled mass spectrometry (LC–MS)
Data set [11] can be described thus: The drug is tested on Bacteroides xylanisolvens strain: DSM18836 for biotransformation. The drug concentrations were measured before and after a 12-h incubation by liquid-chromatography-coupled mass spectrometry (LC–MS). The conditions noted are these: 2 µM.
The nature of data set [12]: The drug is tested on Clostridium ramosum strain: DSM1402 for biotransformation. The drug concentrations were measured before and after a 12-h incubation by liquid-chromatography-coupled mass spectrometry (LC–MS). The conditions noted are these: thomasclavelia ramosa, 2 µM.
A short description of data set [13]: The drug is tested on Eubacterium rectale strain: ATCC33656 for biotransformation. The drug concentrations were measured before and after a 12-h incubation by liquid-chromatography-coupled mass spectrometry (LC–MS). The conditions noted are these: agathobacter rectalis, 2 µM.
A short description of data set [14]: The drug is tested on Bacteroides fragilis strain: HMW610 for biotransformation. The drug concentrations were measured before and after a 12-h incubation by liquid-chromatography-coupled mass spectrometry (LC–MS). Particulars: 2 µM.
A short description of data set [15]: The drug is tested on Bacteroides fragilis strain: ATCC43859 for biotransformation. The drug concentrations were measured before and after a 12-h incubation by liquid-chromatography-coupled mass spectrometry (LC–MS). Particulars: 2 µM.
Data set [16] is described as follows: The drug is tested on Bacteroides coprophilus strain: DSM18228 for biotransformation. The drug concentrations were measured before and after a 12-h incubation by liquid-chromatography-coupled mass spectrometry (LC–MS). The conditions noted are these: 2 µM.
Data set [17] can be described thus: The drug is tested on Bacteroides vulgatus strain: ATCC8482 for biotransformation. The drug concentrations were measured before and after a 12-h incubation by liquid-chromatography-coupled mass spectrometry (LC–MS). The conditions noted are these: phocaeicola vulgatus, 2 µM.
Data set [18] in a line: The drug is tested on Bacteroides cellulosilyticus strain: DSM14838 for biotransformation. The drug concentrations were measured before and after a 12-h incubation by liquid-chromatography-coupled mass spectrometry (LC–MS). Particulars: 2 µM.
Data set [19] is described as follows: The drug is tested on Clostridium symbiosum strain: ATCC14940 for biotransformation. The drug concentrations were measured before and after a 12-h incubation by liquid-chromatography-coupled mass spectrometry (LC–MS). Particulars: 2 µM.
Data set [20] is described as follows: The drug is tested on Edwardsiella tarda strain: ATCC23685 for biotransformation. The drug concentrations were measured before and after a 12-h incubation by liquid-chromatography-coupled mass spectrometry (LC–MS). The conditions noted are these: 2 µM.

On to `Nc1ccc(/N=N/c2ccccc2)c(N)n1` [PHENAZOPYRIDINE], for which the “Bacterial Biotransformation” value in data set [1], in data set [2], in [3], in [4], in data set [5] and in data set [6] was “Compound metabolized” each time. The “Bacterial Biotransformation” value in data set [7], in data set [8], in data set [9], in data set [10], in data set [11] and in data set [12] was “Compound metabolized” in each case. For the same compound, the “Bacterial Biotransformation” value is on record as “Compound metabolized” in data set [13]; “Compound metabolized” in data set [14]; “Compound metabolized” in [15]; “Compound NOT metabolized” in data set [16]; “Compound metabolized” in [17]; “Compound metabolized” in [18]. Moreover, the “Bacterial Biotransformation” value in data set [19] is reported as “Compound metabolized”.
As for `CCS(=O)(=O)CCn1c([N+](=O)[O-])cnc1C` [TINIDAZOLE], the “Bacterial Biotransformation” value in data set [1], in data set [2], in data set [3], in [4], in data set [5] and in data set [6] was “Compound metabolized” each time. Besides, the “Bacterial Biotransformation” value in [7], in [8], in data set [9], in data set [10], in [11] and in data set [12] was “Compound metabolized” each time. For the same compound, the “Bacterial Biotransformation” value is recorded as “Compound metabolized” in data set [13]; “Compound metabolized” in data set [14]; “Compound metabolized” in data set [15]; “Compound NOT metabolized” in [16]; “Compound metabolized” in [17]; “Compound metabolized” in data set [18]. The “Bacterial Biotransformation” value in data set [19] was “Compound metabolized”.
For `CN1CCc2cccc3c2[C@H]1Cc1ccc(O)c(O)c1-3` [APOMORPHINE], the “Bacterial Biotransformation” value in data set [1], in [20], in data set [2], in [3], in [4] and in [5] was “Compound NOT metabolized” throughout. For the same compound, the “Bacterial Biotransformation” value in data set [6], in data set [7], in data set [8], in [9], in data set [10] and in data set [11] was “Compound NOT metabolized” each time. The “Bacterial Biotransformation” value in data set [12], in [13], in [14], in data set [15], in data set [17] and in data set [18] was “Compound NOT metabolized” each time. In addition, the “Bacterial Biotransformation” value in data set [19] is recorded as “Compound NOT metabolized”.
In the case of `CC(C)(C)NCC(O)c1cc(Cl)c(N)c(Cl)c1` (centres undefined) [CLENBUTEROL], the “Bacterial Biotransformation” value in [20], in [2], in data set [3], in data set [4], in data set [5] and in [6] was “Compound NOT metabolized” each time. The “Bacterial Biotransformation” value in data set [7], in [8], in data set [9], in [10], in data set [11] and in data set [12] was “Compound NOT metabolized” in each case. Also, the “Bacterial Biotransformation” value in data set [13], in data set [14], in data set [15], in [16], in data set [17] and in data set [18] was “Compound NOT metabolized” each time. Also, the “Bacterial Biotransformation” value in data set [19] is “Compound NOT metabolized”.
On to `COc1ccc2[nH]c([S+]([O-])Cc3ncc(C)c(OC)c3C)nc2n1` (centres undefined) [TENATOPRAZOLE], for which the “Bacterial Biotransformation” value in data set [1], in data set [20], in [2], in [3], in data set [4] and in [5] was “Compound metabolized” throughout. Further, the “Bacterial Biotransformation” value in data set [6], in data set [7], in [8], in data set [9], in data set [10] and in data set [11] was “Compound metabolized” throughout. Further, the “Bacterial Biotransformation” value in [12], in data set [13], in data set [14], in data set [15], in [16] and in [17] was “Compound metabolized” each time. Besides, the “Bacterial Biotransformation” value in data set [18] is recorded as “Compound metabolized”.
In the case of `O=C(O)c1cc(/N=N/c2ccc(S(=O)(=O)Nc3ccccn3)cc2)ccc1O` [SULFASALAZINE], the “Bacterial Biotransformation” value in [1], in data set [2], in data set [3], in data set [4], in [5] and in [6] was “Compound metabolized” in each case. The “Bacterial Biotransformation” value in data set [7], in data set [8], in data set [9], in data set [10], in data set [11] and in data set [12] was “Compound metabolized” throughout. Moreover, the “Bacterial Biotransformation” value is “Compound metabolized” in data set [13]; “Compound metabolized” in data set [14]; “Compound metabolized” in [15]; “Compound NOT metabolized” in data set [16]; “Compound metabolized” in [17]; “Compound metabolized” in data set [18]. In addition, the “Bacterial Biotransformation” value in data set [19] is “Compound metabolized”.
